According to ChEMBL document CHEMBL5365457, “Selective HDAC3 Inhibitors with Potent In Vivo Antitumor Efficacy against Triple-Negative Breast Cancer” (J Med Chem, 2023):

What was measured:
Histone deacetylase 2 = Histone deacetylase 2 (Homo sapiens, UniProt Q92769); experiment: Inhibition of human recombinant HDAC2 at 1 uM incubated for 30 mins by fluorescence based microplate assay relative to control
Histone deacetylase 3 = Histone deacetylase 3 (Homo sapiens, UniProt O15379); experiment: Inhibition of human recombinant HDAC3 at 1 uM measured after 30 mins by fluorescence based microplate assay relative to control
Sequence of Histone deacetylase 3 (O15379 whole entry): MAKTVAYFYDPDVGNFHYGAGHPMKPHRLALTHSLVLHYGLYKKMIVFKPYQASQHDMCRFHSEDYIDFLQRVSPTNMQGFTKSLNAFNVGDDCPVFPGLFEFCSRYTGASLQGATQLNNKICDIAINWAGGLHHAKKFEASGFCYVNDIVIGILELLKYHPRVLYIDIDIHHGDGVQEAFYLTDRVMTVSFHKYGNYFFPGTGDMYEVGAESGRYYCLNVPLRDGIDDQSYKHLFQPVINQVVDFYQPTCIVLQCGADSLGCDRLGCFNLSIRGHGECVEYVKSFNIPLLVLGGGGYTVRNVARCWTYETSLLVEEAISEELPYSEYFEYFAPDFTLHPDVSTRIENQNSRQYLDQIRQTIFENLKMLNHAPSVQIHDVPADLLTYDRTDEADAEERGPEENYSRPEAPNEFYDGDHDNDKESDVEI

Histone deacetylase 1 = Histone deacetylase 1 (Homo sapiens, UniProt Q13547); experiment: Inhibition of full length N-terminal human recombinant HDAC1 at 1 uM incubated for 30 mins by fluorescence based microplate assay relative to control
Sequence of Histone deacetylase 1 (Q13547 whole entry): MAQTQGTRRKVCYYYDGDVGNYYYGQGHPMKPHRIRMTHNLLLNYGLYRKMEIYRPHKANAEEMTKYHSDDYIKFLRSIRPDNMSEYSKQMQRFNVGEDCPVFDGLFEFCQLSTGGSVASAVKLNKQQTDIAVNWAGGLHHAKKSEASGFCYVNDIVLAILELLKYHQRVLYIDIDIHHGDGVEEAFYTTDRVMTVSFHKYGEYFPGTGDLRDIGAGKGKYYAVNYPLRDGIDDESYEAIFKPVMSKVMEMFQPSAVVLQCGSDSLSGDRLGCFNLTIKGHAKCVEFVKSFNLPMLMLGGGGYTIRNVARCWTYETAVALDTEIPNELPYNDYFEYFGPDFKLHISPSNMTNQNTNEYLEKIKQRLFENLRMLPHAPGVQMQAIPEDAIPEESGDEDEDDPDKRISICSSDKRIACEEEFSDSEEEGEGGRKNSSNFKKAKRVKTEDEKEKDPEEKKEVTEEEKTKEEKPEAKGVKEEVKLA

MCF7 = experiment: Cytotoxicity against human MCF7 cells assessed as inhibition of cell growth incubated for 72 hrs by MTT assay; type: functional, cell-based; conditions: MCF7, 72 h
4T1 = experiment: Cytotoxicity against mouse 4T1 cells assessed as inhibition of cell growth incubated for 72 hrs by MTT assay; type: functional, cell-based; conditions: 4T1, 72 h
MDA-MB-231 = experiment: Cytotoxicity against human MDA-MB-231 cells assessed as inhibition of cell growth incubated for 72 hrs by MTT assay; type: functional, cell-based; conditions: MDA-MB-231, 72 h
MDA-MB-453 = experiment: Cytotoxicity against human MDA-MB-453 cells assessed as inhibition of cell growth incubated for 72 hrs by MTT assay; type: functional, cell-based; conditions: MDA-MB-453, 72 h
[1] = Cytotoxicity against human MCF-10A cells assessed as inhibition of cell growth incubated for 72 hrs by MTT assay; type: toxicity, cell-based
[2] = Cytotoxicity against human HEK293 cells assessed as inhibition of cell growth incubated for 72 hrs by MTT assay; type: toxicity, cell-based
[3] = Cytotoxicity against human HCEC cells assessed as inhibition of cell growth incubated for 72 hrs by MTT assay; type: toxicity, cell-based; conditions: for IC50 at 72 h: human, HCEC cells
[4] = Selectivity ratio of IC50 for cytotoxicity against human MCF-10A cells assessed as inhibition of cell growth to IC50 for cytotoxicity against human MCF7 cells assessed as inhibition of cell growth; type: toxicity, cell-based; conditions: MCF-10A cells versus MCF7 cells, read-out: Ratio IC50
[5] = Selectivity ratio of IC50 for cytotoxicity against human MCF-10A cells assessed as inhibition of cell growth to IC50 for cytotoxicity against […] cells assessed as inhibition of cell growth; type: toxicity, cell-based; conditions: MCF-10A cells versus 4T1 cells, read-out: Ratio IC50
[6] = Selectivity ratio of IC50 for cytotoxicity against human MCF-10A cells assessed as inhibition of cell growth to IC50 for cytotoxicity against human MDA-MB-231 cells assessed as inhibition of cell growth; type: toxicity, cell-based; conditions: MCF-10A cells versus MDA-MB-231 cells, read-out: Ratio IC50
[7] = Selectivity ratio of IC50 for cytotoxicity against human MCF-10A cells assessed as inhibition of cell growth to IC50 for cytotoxicity against human MDA-MB-453 cells assessed as inhibition of cell growth; type: toxicity, cell-based; conditions: MCF-10A cells versus MDA-MB-453 cells, read-out: Ratio IC50
[8] = Selectivity ratio of IC50 for cytotoxicity against human HEK293 cells assessed as inhibition of cell growth to IC50 for cytotoxicity against human MCF7 cells assessed as inhibition of cell growth; type: toxicity, cell-based; conditions: HEK293 cells versus MCF7 cells, read-out: Ratio IC50
[9] = Selectivity ratio of IC50 for cytotoxicity against human HEK293 cells assessed as inhibition of cell growth to IC50 for cytotoxicity against mouse 4T1 cells assessed as inhibition of cell growth; type: toxicity, cell-based; conditions: HEK293 cells versus 4T1 cells, read-out: Ratio IC50
[10] = Selectivity ratio of IC50 for cytotoxicity against human HEK293 cells assessed as inhibition of cell growth to IC50 for cytotoxicity against human MDA-MB-231 cells assessed as inhibition of cell growth; type: toxicity, cell-based; conditions: HEK293 cells versus MDA-MB-231 cells, read-out: Ratio IC50
[11] = Selectivity ratio of IC50 for cytotoxicity against human HEK293 cells assessed as inhibition of cell growth to IC50 for cytotoxicity against human MDA-MB-453 cells assessed as inhibition of cell growth; type: toxicity, cell-based; conditions: HEK293 cells versus MDA-MB-453 cells, read-out: Ratio IC50
[12] = Selectivity ratio of IC50 for cytotoxicity against human HCEC cells assessed as inhibition of cell growth to IC50 for cytotoxicity against human MCF7 cells assessed as inhibition of cell growth; type: toxicity, cell-based; conditions: HCEC cells versus MCF7 cells, read-out: Ratio IC50
[13] = Selectivity ratio of IC50 for cytotoxicity against human HCEC cells assessed as inhibition of cell growth to IC50 for cytotoxicity against mouse 4T1 cells assessed as inhibition of cell growth; type: toxicity, cell-based; conditions: HCEC cells versus 4T1 cells, read-out: Ratio IC50
[14] = Selectivity ratio of IC50 for cytotoxicity against human HCEC cells assessed as inhibition of cell growth to IC50 for cytotoxicity against human MDA-MB-231 cells assessed as inhibition of cell growth; type: toxicity, cell-based; conditions: HCEC cells versus MDA-MB-231 cells, read-out: Ratio IC50
[15] = Selectivity ratio of IC50 for cytotoxicity against human HCEC cells assessed as inhibition of cell growth to IC50 for cytotoxicity against human MDA-MB-453 cells assessed as inhibition of cell growth; type: toxicity, cell-based; conditions: HCEC cells versus MDA-MB-453 cells, read-out: Ratio IC50
Histone deacetylase 8 [16] = target: T1, Histone deacetylase 8 (Homo sapiens, UniProt Q9BY41); experiment: Inhibition of HDAC8 (unknown origin)
T1 sequence (Q9BY41 whole entry): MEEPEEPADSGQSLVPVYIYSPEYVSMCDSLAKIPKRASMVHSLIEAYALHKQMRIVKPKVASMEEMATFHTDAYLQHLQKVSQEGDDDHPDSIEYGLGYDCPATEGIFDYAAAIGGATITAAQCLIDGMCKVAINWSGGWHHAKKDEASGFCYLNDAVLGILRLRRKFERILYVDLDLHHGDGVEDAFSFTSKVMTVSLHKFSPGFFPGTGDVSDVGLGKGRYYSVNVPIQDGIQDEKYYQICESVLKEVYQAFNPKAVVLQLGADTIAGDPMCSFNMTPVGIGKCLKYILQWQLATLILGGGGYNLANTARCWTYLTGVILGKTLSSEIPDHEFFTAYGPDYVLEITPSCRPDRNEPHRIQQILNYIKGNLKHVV

[17] = target: T2, Protein deacetylase HDAC6 (Homo sapiens, UniProt Q9UBN7); experiment: Inhibition of HDAC6 (unknown origin)
T2 sequence (Q9UBN7 whole entry): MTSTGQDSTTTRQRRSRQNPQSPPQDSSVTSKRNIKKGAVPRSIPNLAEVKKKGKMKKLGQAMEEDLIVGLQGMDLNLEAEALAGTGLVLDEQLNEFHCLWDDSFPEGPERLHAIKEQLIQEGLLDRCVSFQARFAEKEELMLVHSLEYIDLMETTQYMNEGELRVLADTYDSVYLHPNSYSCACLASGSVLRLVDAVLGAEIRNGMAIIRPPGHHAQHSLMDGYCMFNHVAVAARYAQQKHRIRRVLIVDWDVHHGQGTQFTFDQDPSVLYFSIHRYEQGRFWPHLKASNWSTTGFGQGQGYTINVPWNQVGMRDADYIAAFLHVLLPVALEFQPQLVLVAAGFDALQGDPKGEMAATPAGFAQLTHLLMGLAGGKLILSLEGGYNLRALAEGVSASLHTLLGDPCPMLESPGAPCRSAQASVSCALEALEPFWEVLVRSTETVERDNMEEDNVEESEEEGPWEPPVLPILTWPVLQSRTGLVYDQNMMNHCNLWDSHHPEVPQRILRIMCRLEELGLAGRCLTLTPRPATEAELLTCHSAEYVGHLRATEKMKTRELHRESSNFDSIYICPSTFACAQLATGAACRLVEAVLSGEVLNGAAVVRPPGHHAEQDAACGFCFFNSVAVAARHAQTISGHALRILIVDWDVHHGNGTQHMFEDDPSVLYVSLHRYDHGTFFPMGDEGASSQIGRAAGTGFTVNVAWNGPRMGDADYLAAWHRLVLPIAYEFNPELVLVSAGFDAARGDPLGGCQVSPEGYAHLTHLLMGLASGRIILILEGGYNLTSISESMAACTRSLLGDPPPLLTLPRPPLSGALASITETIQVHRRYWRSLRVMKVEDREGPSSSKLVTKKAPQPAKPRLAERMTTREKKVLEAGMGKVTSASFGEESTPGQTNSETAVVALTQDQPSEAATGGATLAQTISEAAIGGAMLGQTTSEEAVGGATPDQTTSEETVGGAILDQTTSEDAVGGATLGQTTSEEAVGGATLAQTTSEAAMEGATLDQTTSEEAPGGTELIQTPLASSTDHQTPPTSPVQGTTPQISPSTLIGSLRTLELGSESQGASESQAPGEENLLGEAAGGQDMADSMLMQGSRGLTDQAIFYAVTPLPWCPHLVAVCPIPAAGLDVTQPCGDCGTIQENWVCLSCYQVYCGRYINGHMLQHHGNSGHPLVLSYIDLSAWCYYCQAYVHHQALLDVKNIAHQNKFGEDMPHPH

Histone deacetylase 8 [18] = target: T1, Histone deacetylase 8; experiment: Inhibition of human recombinant HDAC8 incubated for 10 mins by fluorescence based microplate analysis
[19] = target: T2, Protein deacetylase HDAC6; experiment: Inhibition of human recombinant HDAC6 incubated for 15 mins by fluorescence based microplate analysis

Sequence of Histone deacetylase 2 (Q92769 whole entry): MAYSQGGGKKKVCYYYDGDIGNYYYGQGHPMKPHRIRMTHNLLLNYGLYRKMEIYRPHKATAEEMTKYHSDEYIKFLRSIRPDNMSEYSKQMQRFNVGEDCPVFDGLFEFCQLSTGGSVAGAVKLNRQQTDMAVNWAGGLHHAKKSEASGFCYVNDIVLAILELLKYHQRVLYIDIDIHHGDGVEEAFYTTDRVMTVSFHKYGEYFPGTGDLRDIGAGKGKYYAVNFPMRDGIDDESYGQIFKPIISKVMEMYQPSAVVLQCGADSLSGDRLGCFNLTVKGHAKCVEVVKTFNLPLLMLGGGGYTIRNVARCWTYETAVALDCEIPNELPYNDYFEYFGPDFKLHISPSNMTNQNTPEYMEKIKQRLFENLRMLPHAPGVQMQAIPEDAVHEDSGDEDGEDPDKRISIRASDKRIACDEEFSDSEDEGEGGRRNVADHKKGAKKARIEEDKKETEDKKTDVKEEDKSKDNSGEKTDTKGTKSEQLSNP

inhibition (Histone deacetylase 3) | SMILES | IC50 (MCF7) | IC50 (4T1) | IC50 (MDA-MB-231) | IC50 (MDA-MB-453) | IC50 at 72 h [1] | IC50 at 72 h [2] | IC50 at 72 h [3] | selectivity ratio [4] | selectivity ratio [5] | selectivity ratio [6] | selectivity ratio [7] | selectivity ratio [8] | selectivity ratio [9] | selectivity ratio [10] | selectivity ratio [11] | selectivity ratio [12] | selectivity ratio [13] | selectivity ratio [14] | selectivity ratio [15] | also measured
> 70% | CCCNNC(=O)c1cnc(NC(=O)c2ccc3ncccc3c2)cn1 | 1.01 µM | 0.59 µM | 0.87 µM | 1.82 µM | 140 µM | 126 µM | 131 µM | > 40 | > 40 | > 40 | > 40 | > 40 | > 40 | > 40 | > 40 | > 40 | > 40 | > 40 | > 40 | inhibition (Histone deacetylase 2): < 17%; inhibition (Histone deacetylase 1): < 17%
> 70% | CCCNNC(=O)c1cnc(NCc2ccccc2)cn1 | 1.12 µM | 1.15 µM | 1.23 µM | 2.76 µM | 114 µM | 110 µM | 140 µM | > 40 | > 40 | > 40 | > 40 | > 40 | > 40 | > 40 | > 40 | > 40 | > 40 | > 40 | > 40 | inhibition (Histone deacetylase 2): < 17%; inhibition (Histone deacetylase 1): < 17%
 | Nc1ccccc1NC(=O)c1cnccn1 |  |  |  |  |  |  |  |  |  |  |  |  |  |  |  |  |  |  |  | IC50 (Histone deacetylase 8 [16]): 28.5 µM; IC50 [17]: 34.2 µM
> 70% | CCCNNC(=O)c1cnc(NC(=O)c2ccc3[nH]ccc3c2)cn1 | 2.03 µM | 0.71 µM | 0.92 µM | 2.19 µM | 125 µM | 138 µM | 180 µM | > 40 | > 40 | > 40 | > 40 | > 40 | > 40 | > 40 | > 40 | > 40 | > 40 | > 40 | > 40 | inhibition (Histone deacetylase 2): < 17%; inhibition (Histone deacetylase 1): < 17%
> 70% | CCCCNNC(=O)c1cnc(NCc2ccccc2)cn1 | 2.16 µM | 1.6 µM | 132 µM | 3.33 µM | 113 µM | 133 µM | 129 µM | > 40 | > 40 | > 40 | > 40 | > 40 | > 40 | > 40 | > 40 | > 40 | > 40 | > 40 | > 40 | 
> 70% | CCCCNNC(=O)c1cnc(NCc2ccc(OC)cc2)cn1 | 2.59 µM | 0.93 µM | 0.97 µM | 2.68 µM | 109 µM | 107 µM |  | > 40 | > 40 | > 40 | > 40 | > 40 | > 40 | > 40 | > 40 | > 40 | > 40 | > 40 | > 40 | IC50 ([3]; hcec): 1370 µM
 | Nc1ccccc1NC(=O)c1cnc(NCc2ccccc2)cn1 |  |  |  |  |  |  |  |  |  |  |  |  |  |  |  |  |  |  |  | IC50 (Histone deacetylase 8 [18]): 15.6 µM; IC50 [19]: 37.2 µM
